# Experimental data taken from ChEMBL document CHEMBL1909046, “DrugMatrix in vitro pharmacology data”.
# Target: Matrix metalloproteinase-9 (Homo sapiens, UniProt P14780);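 also: inhibition of isolated MMP-9 enzyme activity toward a synthetic peptide substrate, from the DrugMatrix protease screening panel; in other assays of this panel Not Active means under 50% inhibition at 10 µM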
# Format: cell-based
# Conditions: not given
# Chain of Matrix metalloproteinase-9 (P14780 whole entry): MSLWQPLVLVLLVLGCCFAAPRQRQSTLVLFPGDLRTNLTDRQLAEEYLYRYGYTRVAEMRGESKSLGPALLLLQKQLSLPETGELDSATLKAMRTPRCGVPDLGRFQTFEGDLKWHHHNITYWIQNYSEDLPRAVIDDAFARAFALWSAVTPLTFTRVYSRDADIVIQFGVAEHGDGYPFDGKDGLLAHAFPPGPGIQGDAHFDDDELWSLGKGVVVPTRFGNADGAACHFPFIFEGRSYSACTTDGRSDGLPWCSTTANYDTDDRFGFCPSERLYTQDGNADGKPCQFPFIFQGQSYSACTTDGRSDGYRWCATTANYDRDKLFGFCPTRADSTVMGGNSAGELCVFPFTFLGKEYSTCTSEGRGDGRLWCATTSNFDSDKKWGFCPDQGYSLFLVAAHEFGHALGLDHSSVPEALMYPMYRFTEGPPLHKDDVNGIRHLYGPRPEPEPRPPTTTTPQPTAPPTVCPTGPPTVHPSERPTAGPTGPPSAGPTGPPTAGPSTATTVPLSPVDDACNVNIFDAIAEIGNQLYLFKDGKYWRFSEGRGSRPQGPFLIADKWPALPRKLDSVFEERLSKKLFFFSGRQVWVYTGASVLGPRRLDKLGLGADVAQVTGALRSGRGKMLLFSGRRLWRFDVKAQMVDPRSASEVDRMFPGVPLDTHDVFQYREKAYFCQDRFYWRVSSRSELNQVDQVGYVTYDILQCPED
row,Compound,IC50
1,O=C1CCc2cc(OCCCCc3nnnn3C3CCCCC3)ccc2N1 [CILOSTAZOL],Not Active
2,CC(C)(S)[C@@H](N)C(=O)O [PENICILLAMINE],Not Active
3,O=C(O)c1cn(C2CC2)c2cc(N3CCNCC3)c(F)cc2c1=O [CIPROFLOXACIN],Not Active
4,C=C(C)[C@@H]1[C@H]2OC(=O)[C@@H]1[C@]1(O)C[C@H]3O[C@]34C(=O)O[C@H]2[C@]14C [PICROTOXININ],Not Active
5,CCc1ccc(C(=O)C(C)CN2CCCCC2)cc1 (stereo unspecified) [EPERISONE],Not Active

# Target: T1, B2 bradykinin receptor (Homo sapiens, UniProt P30411); also: in other assays of this panel Not Active means under 50% inhibition at 10 µM
# T1 sequence (P30411 whole entry): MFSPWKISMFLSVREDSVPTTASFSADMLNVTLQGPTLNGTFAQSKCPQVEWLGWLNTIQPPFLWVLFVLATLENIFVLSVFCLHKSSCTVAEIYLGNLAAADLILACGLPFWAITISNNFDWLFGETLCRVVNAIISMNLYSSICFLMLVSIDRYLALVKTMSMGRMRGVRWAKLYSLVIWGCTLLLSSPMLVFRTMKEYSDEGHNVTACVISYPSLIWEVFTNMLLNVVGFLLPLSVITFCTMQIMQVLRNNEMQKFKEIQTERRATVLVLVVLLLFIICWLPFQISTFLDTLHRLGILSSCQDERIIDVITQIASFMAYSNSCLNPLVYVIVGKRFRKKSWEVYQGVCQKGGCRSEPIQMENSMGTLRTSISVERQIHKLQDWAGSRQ
# Format: cell membranes, Membrane
# Conditions: chem-1
row,Compound,IC50
1,O=C1CCc2cc(OCCCCc3nnnn3C3CCCCC3)ccc2N1 [CILOSTAZOL],Not Active
2,CC(C)(S)[C@@H](N)C(=O)O [PENICILLAMINE],Not Active
3,O=C(O)c1cn(C2CC2)c2cc(N3CCNCC3)c(F)cc2c1=O [CIPROFLOXACIN],Not Active
4,C=C(C)[C@@H]1[C@H]2OC(=O)[C@@H]1[C@]1(O)C[C@H]3O[C@]34C(=O)O[C@H]2[C@]14C [PICROTOXININ],Not Active
5,CCc1ccc(C(=O)C(C)CN2CCCCC2)cc1 (stereo unspecified) [EPERISONE],Not Active

# System: not listed separately
# Assay: DRUGMATRIX: Serotonin (5-Hydroxytryptamine) 5-HT3 radioligand binding (ligand: [3H] GR-65630)
# Format: cell membranes, Membrane
# Conditions: hek293; Not Active = under 50% inhibition at 10 µM
Compound,IC50,Ki
O=C1CCc2cc(OCCCCc3nnnn3C3CCCCC3)ccc2N1 [CILOSTAZOL],Not Active,Not Active
CC(C)(S)[C@@H](N)C(=O)O [PENICILLAMINE],Not Active,Not Active
O=C(O)c1cn(C2CC2)c2cc(N3CCNCC3)c(F)cc2c1=O [CIPROFLOXACIN],Not Active,Not Active
C=C(C)[C@@H]1[C@H]2OC(=O)[C@@H]1[C@]1(O)C[C@H]3O[C@]34C(=O)O[C@H]2[C@]14C [PICROTOXININ],Not Active,Not Active
CCc1ccc(C(=O)C(C)CN2CCCCC2)cc1 (stereo unspecified) [EPERISONE],Not Active,Not Active

# Target: T2, Progesterone receptor (Bos taurus, UniProt Q690N0)
# T2 sequence (Q690N0 whole entry): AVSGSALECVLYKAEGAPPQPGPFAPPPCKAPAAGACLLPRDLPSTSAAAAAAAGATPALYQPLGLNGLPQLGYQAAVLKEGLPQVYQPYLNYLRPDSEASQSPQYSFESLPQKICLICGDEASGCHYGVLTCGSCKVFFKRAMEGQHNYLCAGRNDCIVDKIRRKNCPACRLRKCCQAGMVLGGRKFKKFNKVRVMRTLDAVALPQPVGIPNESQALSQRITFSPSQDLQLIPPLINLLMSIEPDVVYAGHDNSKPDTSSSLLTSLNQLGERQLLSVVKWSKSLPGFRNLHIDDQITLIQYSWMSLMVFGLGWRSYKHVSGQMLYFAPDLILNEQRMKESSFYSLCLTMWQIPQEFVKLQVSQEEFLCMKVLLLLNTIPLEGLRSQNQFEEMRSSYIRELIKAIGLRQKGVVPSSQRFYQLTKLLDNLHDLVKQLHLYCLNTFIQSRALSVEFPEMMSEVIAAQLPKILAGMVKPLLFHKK
# Assay: DRUGMATRIX: Progesterone radioligand binding (ligand: [3H] R-5020)
# Format: tissue-based, Uterus
# Conditions: Not Active = under 50% inhibition at 10 µM
row,Compound,IC50
1,O=C1CCc2cc(OCCCCc3nnnn3C3CCCCC3)ccc2N1 [CILOSTAZOL],Not Active
2,CC(C)(S)[C@@H](N)C(=O)O [PENICILLAMINE],Not Active
3,O=C(O)c1cn(C2CC2)c2cc(N3CCNCC3)c(F)cc2c1=O [CIPROFLOXACIN],Not Active
4,C=C(C)[C@@H]1[C@H]2OC(=O)[C@@H]1[C@]1(O)C[C@H]3O[C@]34C(=O)O[C@H]2[C@]14C [PICROTOXININ],Not Active
5,CCc1ccc(C(=O)C(C)CN2CCCCC2)cc1 (stereo unspecified) [EPERISONE],Not Active

# Target: T3, Alpha-1A adrenergic receptor (Rattus norvegicus, UniProt P43140)
# T3 sequence (P43140 whole entry): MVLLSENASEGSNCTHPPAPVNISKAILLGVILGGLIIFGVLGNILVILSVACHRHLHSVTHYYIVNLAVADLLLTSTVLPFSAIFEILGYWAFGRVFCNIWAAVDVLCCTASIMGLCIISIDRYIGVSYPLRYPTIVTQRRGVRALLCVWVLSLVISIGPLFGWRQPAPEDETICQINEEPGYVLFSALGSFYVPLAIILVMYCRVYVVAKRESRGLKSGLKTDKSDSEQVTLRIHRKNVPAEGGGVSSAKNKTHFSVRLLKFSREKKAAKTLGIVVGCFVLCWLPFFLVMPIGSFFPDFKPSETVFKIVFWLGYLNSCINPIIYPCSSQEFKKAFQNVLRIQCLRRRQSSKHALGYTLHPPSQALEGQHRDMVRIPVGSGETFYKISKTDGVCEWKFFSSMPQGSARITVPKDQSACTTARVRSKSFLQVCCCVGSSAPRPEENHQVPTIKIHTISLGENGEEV
# Assay: DRUGMATRIX: Alpha-1A adrenergic receptor radioligand binding (ligand: prazosin)
# Format: cell membranes, Wistar, Submaxillary gland, Membrane
# Conditions: Not Active = under 50% inhibition at 10 µM
row,Compound,IC50
1,O=C1CCc2cc(OCCCCc3nnnn3C3CCCCC3)ccc2N1 [CILOSTAZOL],Not Active
2,CC(C)(S)[C@@H](N)C(=O)O [PENICILLAMINE],Not Active
3,O=C(O)c1cn(C2CC2)c2cc(N3CCNCC3)c(F)cc2c1=O [CIPROFLOXACIN],Not Active
4,C=C(C)[C@@H]1[C@H]2OC(=O)[C@@H]1[C@]1(O)C[C@H]3O[C@]34C(=O)O[C@H]2[C@]14C [PICROTOXININ],Not Active
5,CCc1ccc(C(=O)C(C)CN2CCCCC2)cc1 (stereo unspecified) [EPERISONE],Not Active

# Target: Mitogen-activated protein kinase 14 (Homo sapiens, UniProt Q16539);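 also: inhibition of p38alpha enzyme activity in a biochemical kinase assay, with myelin basic protein serving as substrate; in other assays of this panel Not Active means under 50% inhibition at 10 µM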
# Parameters: species or system Escherichia coli
# Conditions: not given
# Chain of Mitogen-activated protein kinase 14 (Q16539 whole entry): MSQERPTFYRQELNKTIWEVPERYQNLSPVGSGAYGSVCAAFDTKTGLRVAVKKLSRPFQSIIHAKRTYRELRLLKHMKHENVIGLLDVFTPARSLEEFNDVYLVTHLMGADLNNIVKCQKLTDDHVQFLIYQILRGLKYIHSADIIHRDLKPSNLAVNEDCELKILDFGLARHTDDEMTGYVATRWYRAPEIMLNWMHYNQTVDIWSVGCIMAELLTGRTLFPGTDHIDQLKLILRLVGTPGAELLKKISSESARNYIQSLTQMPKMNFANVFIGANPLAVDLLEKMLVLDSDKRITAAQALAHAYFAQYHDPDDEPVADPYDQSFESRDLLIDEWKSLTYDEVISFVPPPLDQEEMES
row,Compound,IC50
1,O=C1CCc2cc(OCCCCc3nnnn3C3CCCCC3)ccc2N1 [CILOSTAZOL],Not Active
2,CC(C)(S)[C@@H](N)C(=O)O [PENICILLAMINE],Not Active
3,O=C(O)c1cn(C2CC2)c2cc(N3CCNCC3)c(F)cc2c1=O [CIPROFLOXACIN],Not Active
4,C=C(C)[C@@H]1[C@H]2OC(=O)[C@@H]1[C@]1(O)C[C@H]3O[C@]34C(=O)O[C@H]2[C@]14C [PICROTOXININ],Not Active
5,CCc1ccc(C(=O)C(C)CN2CCCCC2)cc1 (stereo unspecified) [EPERISONE],Not Active

# Target: Protein kinase C alpha type (Homo sapiens, UniProt P17252);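 also: inhibition of PKCalpha kinase activity measured in an enzyme assay with histone as the phosphorylation substrate; in other assays of this panel Not Active means under 50% inhibition at 10 µM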
# Format: cell-based
# Conditions: sf9
row,Compound,IC50
1,O=C1CCc2cc(OCCCCc3nnnn3C3CCCCC3)ccc2N1 [CILOSTAZOL],Not Active
2,CC(C)(S)[C@@H](N)C(=O)O [PENICILLAMINE],Not Active
3,O=C(O)c1cn(C2CC2)c2cc(N3CCNCC3)c(F)cc2c1=O [CIPROFLOXACIN],Not Active
4,C=C(C)[C@@H]1[C@H]2OC(=O)[C@@H]1[C@]1(O)C[C@H]3O[C@]34C(=O)O[C@H]2[C@]14C [PICROTOXININ],Not Active
5,CCc1ccc(C(=O)C(C)CN2CCCCC2)cc1 (stereo unspecified) [EPERISONE],Not Active

# Target: T4, Muscarinic acetylcholine receptor M4 (Homo sapiens, UniProt P08173); also: in other assays of this panel Not Active means under 50% inhibition at 10 µM
# T4 sequence (P08173 whole entry): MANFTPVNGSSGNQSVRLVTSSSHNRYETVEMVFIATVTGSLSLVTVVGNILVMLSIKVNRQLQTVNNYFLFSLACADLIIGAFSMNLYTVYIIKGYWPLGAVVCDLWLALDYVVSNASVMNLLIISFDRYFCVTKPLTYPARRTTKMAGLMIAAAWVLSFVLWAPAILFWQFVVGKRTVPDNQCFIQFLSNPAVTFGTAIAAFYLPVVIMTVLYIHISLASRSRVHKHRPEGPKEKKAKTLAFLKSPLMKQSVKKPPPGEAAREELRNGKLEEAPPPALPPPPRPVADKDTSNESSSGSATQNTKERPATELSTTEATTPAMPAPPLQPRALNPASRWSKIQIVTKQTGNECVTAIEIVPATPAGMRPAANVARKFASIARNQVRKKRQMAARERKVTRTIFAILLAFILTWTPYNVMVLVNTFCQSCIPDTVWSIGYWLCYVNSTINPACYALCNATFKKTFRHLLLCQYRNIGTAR
# Format: cell membranes, CHO-K1, Membrane
# Conditions: cho-k1
row,Compound,IC50
1,O=C1CCc2cc(OCCCCc3nnnn3C3CCCCC3)ccc2N1 [CILOSTAZOL],Not Active
2,CC(C)(S)[C@@H](N)C(=O)O [PENICILLAMINE],Not Active
3,O=C(O)c1cn(C2CC2)c2cc(N3CCNCC3)c(F)cc2c1=O [CIPROFLOXACIN],Not Active
4,C=C(C)[C@@H]1[C@H]2OC(=O)[C@@H]1[C@]1(O)C[C@H]3O[C@]34C(=O)O[C@H]2[C@]14C [PICROTOXININ],Not Active
5,CCc1ccc(C(=O)C(C)CN2CCCCC2)cc1 (stereo unspecified) [EPERISONE],Not Active

# Target: Vascular endothelial growth factor receptor 1 (Homo sapiens, UniProt P17948); also: in other assays of this panel Not Active means under 50% inhibition at 10 µM
# Format: cell-based
# Conditions: huvec
# Chain of Vascular endothelial growth factor receptor 1 (P17948 whole entry): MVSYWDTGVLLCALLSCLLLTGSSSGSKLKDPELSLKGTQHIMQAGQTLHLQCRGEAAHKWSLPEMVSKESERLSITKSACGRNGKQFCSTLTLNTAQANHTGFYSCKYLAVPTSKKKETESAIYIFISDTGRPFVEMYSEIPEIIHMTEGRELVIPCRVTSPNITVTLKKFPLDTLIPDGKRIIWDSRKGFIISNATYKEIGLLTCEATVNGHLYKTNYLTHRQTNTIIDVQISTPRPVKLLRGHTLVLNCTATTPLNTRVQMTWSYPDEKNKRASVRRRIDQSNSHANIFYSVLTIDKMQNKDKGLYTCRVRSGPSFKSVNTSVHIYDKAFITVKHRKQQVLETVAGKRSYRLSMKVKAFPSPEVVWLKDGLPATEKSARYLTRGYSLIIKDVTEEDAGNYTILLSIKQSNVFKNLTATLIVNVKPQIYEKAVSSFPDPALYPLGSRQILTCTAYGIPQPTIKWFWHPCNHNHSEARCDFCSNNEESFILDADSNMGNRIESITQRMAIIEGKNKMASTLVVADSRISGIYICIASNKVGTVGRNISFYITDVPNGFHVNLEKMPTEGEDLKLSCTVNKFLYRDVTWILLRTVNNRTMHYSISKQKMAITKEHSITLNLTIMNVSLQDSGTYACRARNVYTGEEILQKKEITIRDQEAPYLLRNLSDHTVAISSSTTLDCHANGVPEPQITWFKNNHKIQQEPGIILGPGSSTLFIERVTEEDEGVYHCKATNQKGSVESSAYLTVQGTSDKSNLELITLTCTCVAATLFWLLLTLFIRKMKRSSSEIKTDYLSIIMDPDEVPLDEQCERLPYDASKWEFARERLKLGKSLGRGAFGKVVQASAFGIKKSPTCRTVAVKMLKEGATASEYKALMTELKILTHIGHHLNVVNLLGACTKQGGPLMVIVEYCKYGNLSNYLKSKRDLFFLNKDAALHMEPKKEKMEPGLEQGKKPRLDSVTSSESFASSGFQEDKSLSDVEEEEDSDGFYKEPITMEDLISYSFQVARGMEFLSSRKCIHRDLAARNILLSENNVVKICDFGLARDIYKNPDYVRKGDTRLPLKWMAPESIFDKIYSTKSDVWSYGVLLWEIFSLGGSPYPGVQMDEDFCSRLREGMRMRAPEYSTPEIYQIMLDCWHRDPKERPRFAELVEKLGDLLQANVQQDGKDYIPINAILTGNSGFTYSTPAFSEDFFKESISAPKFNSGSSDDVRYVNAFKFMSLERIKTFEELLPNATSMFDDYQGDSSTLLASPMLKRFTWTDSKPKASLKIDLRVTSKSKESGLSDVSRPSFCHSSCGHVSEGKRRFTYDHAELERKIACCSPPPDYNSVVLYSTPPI
row,Compound,IC50
1,O=C1CCc2cc(OCCCCc3nnnn3C3CCCCC3)ccc2N1 [CILOSTAZOL],Not Active
2,CC(C)(S)[C@@H](N)C(=O)O [PENICILLAMINE],Not Active
3,O=C(O)c1cn(C2CC2)c2cc(N3CCNCC3)c(F)cc2c1=O [CIPROFLOXACIN],Not Active
4,C=C(C)[C@@H]1[C@H]2OC(=O)[C@@H]1[C@]1(O)C[C@H]3O[C@]34C(=O)O[C@H]2[C@]14C [PICROTOXININ],Not Active
5,CCc1ccc(C(=O)C(C)CN2CCCCC2)cc1 (stereo unspecified) [EPERISONE],Not Active

# Target: Delta-type opioid receptor (Homo sapiens, UniProt P41143); also: in other assays of this panel Not Active means under 50% inhibition at 10 µM
# Format: cell membranes, HEK293, Membrane
# Conditions: hek293
# Chain of Delta-type opioid receptor (P41143 whole entry): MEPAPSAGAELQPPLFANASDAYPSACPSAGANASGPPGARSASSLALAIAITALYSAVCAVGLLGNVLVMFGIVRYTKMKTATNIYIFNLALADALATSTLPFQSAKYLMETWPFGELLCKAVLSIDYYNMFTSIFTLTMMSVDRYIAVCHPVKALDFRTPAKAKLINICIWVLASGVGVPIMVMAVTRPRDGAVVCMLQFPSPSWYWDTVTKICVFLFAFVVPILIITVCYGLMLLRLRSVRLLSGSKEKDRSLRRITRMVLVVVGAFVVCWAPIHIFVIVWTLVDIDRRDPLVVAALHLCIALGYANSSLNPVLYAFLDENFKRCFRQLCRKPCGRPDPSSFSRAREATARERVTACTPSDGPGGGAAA
row,Compound,IC50
1,O=C1CCc2cc(OCCCCc3nnnn3C3CCCCC3)ccc2N1 [CILOSTAZOL],Not Active
2,CC(C)(S)[C@@H](N)C(=O)O [PENICILLAMINE],Not Active
3,O=C(O)c1cn(C2CC2)c2cc(N3CCNCC3)c(F)cc2c1=O [CIPROFLOXACIN],Not Active
4,C=C(C)[C@@H]1[C@H]2OC(=O)[C@@H]1[C@]1(O)C[C@H]3O[C@]34C(=O)O[C@H]2[C@]14C [PICROTOXININ],Not Active
5,CCc1ccc(C(=O)C(C)CN2CCCCC2)cc1 (stereo unspecified) [EPERISONE],Not Active

# Target: Nitric oxide synthase 1 (Rattus norvegicus, UniProt P29476); also: in other assays of this panel Not Active means under 50% inhibition at 10 µM
# Format: tissue-based, Cerebellum
# Conditions: not given
# Chain of Nitric oxide synthase 1 (P29476 whole entry): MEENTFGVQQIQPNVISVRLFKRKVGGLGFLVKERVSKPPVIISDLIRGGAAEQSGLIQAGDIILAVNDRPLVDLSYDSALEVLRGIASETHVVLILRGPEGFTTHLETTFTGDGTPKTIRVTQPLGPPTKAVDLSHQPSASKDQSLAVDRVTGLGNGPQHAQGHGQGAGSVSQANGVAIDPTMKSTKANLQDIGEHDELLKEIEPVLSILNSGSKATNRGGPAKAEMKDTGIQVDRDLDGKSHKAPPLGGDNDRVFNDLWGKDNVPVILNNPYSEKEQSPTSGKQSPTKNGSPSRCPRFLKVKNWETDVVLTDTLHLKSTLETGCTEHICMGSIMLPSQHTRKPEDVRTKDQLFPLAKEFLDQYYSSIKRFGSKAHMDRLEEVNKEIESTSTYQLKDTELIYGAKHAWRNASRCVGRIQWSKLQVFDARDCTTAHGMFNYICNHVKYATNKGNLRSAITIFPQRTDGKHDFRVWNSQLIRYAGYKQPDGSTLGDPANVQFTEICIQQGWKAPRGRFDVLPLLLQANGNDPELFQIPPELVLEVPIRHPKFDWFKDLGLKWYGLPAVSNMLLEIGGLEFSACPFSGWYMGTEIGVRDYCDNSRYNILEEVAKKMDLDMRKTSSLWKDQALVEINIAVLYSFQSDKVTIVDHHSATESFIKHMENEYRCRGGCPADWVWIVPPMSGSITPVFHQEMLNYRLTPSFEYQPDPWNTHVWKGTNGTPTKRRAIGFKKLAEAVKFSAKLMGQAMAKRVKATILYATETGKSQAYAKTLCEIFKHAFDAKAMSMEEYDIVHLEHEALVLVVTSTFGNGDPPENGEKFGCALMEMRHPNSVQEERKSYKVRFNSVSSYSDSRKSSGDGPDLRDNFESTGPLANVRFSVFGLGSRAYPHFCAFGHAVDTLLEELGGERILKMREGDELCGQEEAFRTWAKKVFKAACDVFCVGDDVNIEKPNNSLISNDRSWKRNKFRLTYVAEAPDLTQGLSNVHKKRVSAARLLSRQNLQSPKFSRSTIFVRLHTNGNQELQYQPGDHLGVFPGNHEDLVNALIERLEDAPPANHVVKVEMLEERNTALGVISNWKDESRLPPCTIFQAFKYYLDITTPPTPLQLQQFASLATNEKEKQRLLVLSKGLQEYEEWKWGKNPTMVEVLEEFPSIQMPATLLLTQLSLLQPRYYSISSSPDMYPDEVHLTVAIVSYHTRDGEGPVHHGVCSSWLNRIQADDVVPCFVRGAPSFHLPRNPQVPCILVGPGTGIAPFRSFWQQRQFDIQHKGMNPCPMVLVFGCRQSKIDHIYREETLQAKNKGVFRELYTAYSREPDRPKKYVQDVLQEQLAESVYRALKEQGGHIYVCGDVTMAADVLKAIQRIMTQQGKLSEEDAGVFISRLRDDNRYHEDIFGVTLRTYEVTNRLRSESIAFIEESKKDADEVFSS
row,Compound,IC50
1,O=C1CCc2cc(OCCCCc3nnnn3C3CCCCC3)ccc2N1 [CILOSTAZOL],Not Active
2,CC(C)(S)[C@@H](N)C(=O)O [PENICILLAMINE],Not Active
3,O=C(O)c1cn(C2CC2)c2cc(N3CCNCC3)c(F)cc2c1=O [CIPROFLOXACIN],Not Active
4,C=C(C)[C@@H]1[C@H]2OC(=O)[C@@H]1[C@]1(O)C[C@H]3O[C@]34C(=O)O[C@H]2[C@]14C [PICROTOXININ],Not Active
5,CCc1ccc(C(=O)C(C)CN2CCCCC2)cc1 (stereo unspecified) [EPERISONE],Not Active

# Target: Sigma non-opioid intracellular receptor 1 (Homo sapiens, UniProt Q99720)
# Assay: DRUGMATRIX: Sigma1 radioligand binding (ligand: [3H] Haloperidol)
# Format: cell membranes, Jurkat, Membrane
# Conditions: Not Active = under 50% inhibition at 10 µM; read-out: IC50
# Chain of Sigma non-opioid intracellular receptor 1 (Q99720 whole entry): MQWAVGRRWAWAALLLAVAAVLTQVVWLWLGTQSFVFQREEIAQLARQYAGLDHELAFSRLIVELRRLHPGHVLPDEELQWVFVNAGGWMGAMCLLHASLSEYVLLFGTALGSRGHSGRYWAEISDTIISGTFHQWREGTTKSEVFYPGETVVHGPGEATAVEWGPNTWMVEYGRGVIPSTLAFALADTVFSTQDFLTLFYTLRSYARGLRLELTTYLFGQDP
row,Compound,IC50
1,CCc1ccc(C(=O)C(C)CN2CCCCC2)cc1 (stereo unspecified) [EPERISONE],4.05 nM

# Same assay, conditions: Not Active = under 50% inhibition at 10 µM; read-out: Ki
row,Compound,Ki
1,CCc1ccc(C(=O)C(C)CN2CCCCC2)cc1 (stereo unspecified) [EPERISONE],1.7 nM

# Same assay, conditions: jurkat; Not Active = under 50% inhibition at 10 µM
row,Compound,IC50
1,O=C1CCc2cc(OCCCCc3nnnn3C3CCCCC3)ccc2N1 [CILOSTAZOL],Not Active
2,CC(C)(S)[C@@H](N)C(=O)O [PENICILLAMINE],Not Active
3,O=C(O)c1cn(C2CC2)c2cc(N3CCNCC3)c(F)cc2c1=O [CIPROFLOXACIN],Not Active
4,C=C(C)[C@@H]1[C@H]2OC(=O)[C@@H]1[C@]1(O)C[C@H]3O[C@]34C(=O)O[C@H]2[C@]14C [PICROTOXININ],Not Active
